Source: ChEMBL document CHEMBL4411258, “Novel natural compounds from endophytic fungi with anticancer activity” (Eur J Med Chem, 2018)
Converted amounts (≈) assume the structure as drawn.

Columns and labels:
[1] = Inhibition of TNFalpha-induced NFkappaB (unknown origin) activation expressed in HEK293 cells preincubated for 1 hr followed by TNFalpha stimulation and measured after 1 hr by dual luciferase reporter gene assay; assay type: cell-based; conditions: Homo sapiens
[2] = biological target: Polyunsaturated fatty acid 5-lipoxygenase (Homo sapiens) (UniProt P09917); test: Inhibition of 5-LOX (unknown origin) at 30 ug/ml relative to control
Polyunsaturated fatty acid 5-lipoxygenase (Homo sapiens), sequence (P09917 whole entry): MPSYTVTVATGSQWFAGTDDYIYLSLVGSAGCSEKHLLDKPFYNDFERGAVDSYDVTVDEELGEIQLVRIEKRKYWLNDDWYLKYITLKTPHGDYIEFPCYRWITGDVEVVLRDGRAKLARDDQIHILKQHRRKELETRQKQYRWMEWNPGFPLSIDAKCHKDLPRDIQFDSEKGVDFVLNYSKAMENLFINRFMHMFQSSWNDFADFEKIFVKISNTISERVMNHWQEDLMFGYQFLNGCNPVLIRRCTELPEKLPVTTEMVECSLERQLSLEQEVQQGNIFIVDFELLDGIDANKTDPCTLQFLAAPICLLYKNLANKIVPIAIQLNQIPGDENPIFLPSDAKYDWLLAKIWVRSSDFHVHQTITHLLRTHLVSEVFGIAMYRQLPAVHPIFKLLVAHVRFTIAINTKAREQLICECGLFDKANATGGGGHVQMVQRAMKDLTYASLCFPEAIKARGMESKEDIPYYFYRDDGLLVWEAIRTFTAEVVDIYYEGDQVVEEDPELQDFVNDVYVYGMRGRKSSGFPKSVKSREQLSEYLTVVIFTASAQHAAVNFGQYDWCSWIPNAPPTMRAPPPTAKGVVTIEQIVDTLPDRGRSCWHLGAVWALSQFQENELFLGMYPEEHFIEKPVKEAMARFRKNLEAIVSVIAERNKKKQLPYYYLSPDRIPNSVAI

L5178Y = test: Cytotoxicity against mouse L5178Y cells by MTT assay; assay type: functional, cell-based
PC-12 = test: Cytotoxicity against rat PC12 cells by MTT assay; assay type: functional, cell-based
MKN-45 = test: Cytotoxicity against human MKN45 cells after 24 hrs by MTT assay; assay type: functional, cell-based; conditions: MKN-45, 24 h
A549 [3] = test: Cytotoxicity against human A549 cells after 24 hrs by MTT assay; assay type: functional, cell-based; conditions: A549, 24 h
LoVo = test: Cytotoxicity against human LoVo cells after 24 hrs by MTT assay; assay type: functional, cell-based
HL-60 [4] = test: Cytotoxicity against human HL60 cells after 24 hrs by MTT assay; assay type: functional, cell-based; conditions: HL-60, 24 h
A2780 = test: Cytotoxicity against human A2780 cells by MTT assay; assay type: functional, cell-based
HCT-116 [5] = test: Cytotoxicity against human HCT116 cells by MTT assay; assay type: functional, cell-based
KB = test: Cytotoxicity against human KB cells by MTT assay; assay type: functional, cell-based
HepG2 [6] = test: Cytotoxicity against human HepG2 cells after 24 hrs by MTT assay; assay type: functional, cell-based; conditions: HepG2, 24 h
SH-SY5Y = test: Cytotoxicity against human SH-SY5Y cells by MTT assay; assay type: functional, cell-based
MCF7 [7] = test: Cytotoxicity against human MCF7 cells by MTT assay; assay type: functional, cell-based
PC-3 = test: Cytotoxicity against human PC3 cells by MTT assay; assay type: functional, cell-based
NB-4 = test: Cytotoxicity against human NB4 cells by MTT assay; assay type: functional, cell-based
A549 [8] = test: Cytotoxicity against human A549 cells by MTT assay; assay type: functional, cell-based
T47D = test: Cytotoxicity against human T47D cells after 48 hrs by MTT assay; assay type: functional, cell-based
MOLT-3 = test: Cytotoxicity against human MOLT3 cells by XTT assay; assay type: functional, cell-based
SGC-7901 = test: Cytotoxicity against human SGC7901 cells by MTT assay; assay type: functional, cell-based
MDA-MB-435 [9] = test: Cytotoxicity against human MDA-MB-435 cells by MTT assay; assay type: functional, cell-based
K562 = test: Cytotoxicity against human K562 cells by trypan blue exclusion assay; assay type: functional, cell-based
HL-60 [10] = test: Cytotoxicity against human HL60 cells by trypan blue exclusion assay; assay type: functional, cell-based
[11] = Inhibition of TNFalpha-induced NFkappaB (unknown origin) activation expressed in HEK293 cells after 6 hrs by luciferase reporter gene based assay; assay type: cell-based; conditions: Homo sapiens, HEK293, 6 h
NCI-H460 = test: Cytotoxicity against human NCI-H460 cells; assay type: functional, cell-based
HeLa = test: Cytotoxicity against human HeLa cells by MTT assay; assay type: functional, cell-based
HL-60 [12] = test: Cytotoxicity against human HL60 cells by MTT assay; assay type: functional, cell-based
HepG2 [13] = test: Cytotoxicity against human HepG2 cells after 72 hrs by MTT assay; assay type: functional, cell-based; conditions: HepG2, 72 h
MDA-MB-435 [14] = test: Cytotoxicity against human MDA-MB-435 cells after 72 hrs by MTT assay; assay type: functional, cell-based; conditions: MDA-MB-435, 72 h
HCT-116 [15] = test: Cytotoxicity against human HCT116 cells after 72 hrs by MTT assay; assay type: functional, cell-based; conditions: HCT-116, 72 h
MCF7 [16] = test: Cytotoxicity against human MCF7 cells by CCK8 assay; assay type: functional, cell-based
A549 [17] = test: Cytotoxicity against human A549 cells by CCK8 assay; assay type: functional, cell-based
HL-60 [18] = test: Cytotoxicity against human HL60 cells by CCK8 assay; assay type: functional, cell-based
SMMC-7721 = test: Cytotoxicity against human SMMC7721 cells by CCK8 assay; assay type: functional, cell-based
SW480 = test: Cytotoxicity against human SW480 cells by CCK8 assay; assay type: functional, cell-based

C[C@@H]1CO[C@@]2(O)[C@@H]1C[C@]1(C)[C@@H](C)CC[C@H](O)[C@@]13O[C@@H]23
IC50 [1]: 7.11 µM

CCCCC/C=C/C1=C(CO)[C@@H](O)[C@H]2O[C@@]2(C/C=C(\C)C(=O)O)[C@H]1O
inhibition [2]: 67.4%

COc1cccc2c1C(=O)c1c(O)c3c(c(O)c1C2=O)C[C@@](O)(C(=O)CO)C[C@@H]3O[C@H]1C[C@H](N)[C@H](O)[C@H](C)O1 [DOXORUBICIN]
IC50 (L5178Y): 4.6 µM | IC50 (PC-12): 5.71 µM

CC[C@@H](O)[C@H](O)[C@@H]1C[C@](O)(OC)CC(=O)O1
IC50 (MKN-45): < 200 µM | IC50 (A549 [3]): < 200 µM | IC50 (LoVo): < 200 µM | IC50 (HL-60 [4]): < 200 µM

C/C=C(\C)[C@H]1[C@@H](/C=C/C=C(\C)[C@@H](O)[C@@H](C)C(C)O)[C@@H]2C[C@@H](OC(=O)Cc3ccccc3)[C@](C)(O)C[C@H]2[C@@H]2O[C@@]21C (stereo partly drawn)
IC50 (A2780): 12.5 µM

CC1=C2[C@@H](O)C[C@@]2(C)[C@@H]2C[C@@H]3CC[C@@H](C)[C@@]2(CC1)C3(C)C
IC50 (HCT-116 [5]): 25 µM | IC50 (KB): 25 µM

COc1ccc2c3c([nH]c2c1)C(C=C(C)C)N1C(=O)C2CCCN2C(=O)C1(OC)C3OC(=O)c1cc(O)cc(OC)c1C(=O)c1c(O)cc(C)cc1OC (stereo not drawn)
IC50 (HepG2 [6]): 47.5 µM

COC(=O)[C@@H]1c2c(oc3cc(CCO)cc(O)c3c2=O)C=C[C@H]1O
IC50 (SH-SY5Y): 4.1 µM | IC50 (MCF7 [7]): 6.5 µM | IC50 (PC-3): 2.8 µM | IC50 (NB-4): 2.2 µM | IC50 (A549 [8]): 5.6 µM

CCCC[C@H](C)/C=C(C)/C=C/C(=O)O[C@@]1(C)C(=O)C=C2C=C(/C=C/C(=O)O)OC=C2C1=O
IC50 (T47D): 1 to 10 µM

C/C(=C\C=C\[C@H](O)[C@@H](C)O)[C@H](O)[C@H](C)C(=O)O[C@H]1C[C@H](C)C[C@@H]2C=C[C@H](C)[C@](C)(C(=O)CCO)[C@@H]12
IC50 (MOLT-3): 37.3 µg/mL (≈ 75.7 µM)

CC1=C[C@@H]2/C=C/C[C@H](C)/C=C(\C)CC(=O)/C=C/C(=O)[C@]23C(=O)N[C@@H](Cc2c[nH]c4ccccc24)[C@@H]3[C@@H]1C [PROCHEATOGLOBOSIN II]
IC50 (A549 [8]): 35.9 µM | IC50 (SGC-7901): 37.7 µM | IC50 (MDA-MB-435 [9]): 36.9 µM

CCCCc1c(OC)cc(=O)oc1CO
IC50 (K562): 0.9 µg/mL (≈ 4.24 µM) | IC50 (HL-60 [10]): 0.45 µg/mL (≈ 2.12 µM)

O=C1N[C@H](Cc2ccccc2)C(=O)N[C@H]1Cc1cn([C@]23C[C@H]4C(=O)N[C@H](Cc5ccccc5)C(=O)N4[C@H]2Nc2ccccc23)c2ccccc12
IC50 (A2780): 56.7 µM

CC(=O)OC(CC=C(C)C)C[C@@]1(C)CCC[C@H]2[C@@]3(C)C=CC(=O)[C@@H](C)[C@@H]3[C@H](OC(C)=O)C(=O)[C@@]21C (stereo partly drawn)
IC50 (HepG2 [6]): 140 µM

CCCCCCCCCCC[C@@H](C)[C@@H]1CC(=O)N[C@@H]([C@H](C)O)C(=O)N[C@@H](C)C(=O)N[C@H](C)C(=O)N[C@@H](CCC(N)=O)C(=O)N[C@H](Cc2ccc(O)cc2)C(=O)N[C@@H]([C@@H](C)CC)C(=O)O1
IC50 (L5178Y): 5.71 µM | IC50 (PC-12): 9.55 µM

CCCCC[C@@H]1OC2=C(C(=O)N(OC)C2CSC[C@@H](O)C(=O)O)[C@H](O)[C@@]1(C)O (stereo partly drawn)
IC50 [11]: 7.1 µM

C=CC1(C)c2[nH]c3cc4c(cc3c2C[C@H]2C(=O)N3CCC[C@H]3C(=O)N21)C=CC(C)(C)O4 (stereo partly drawn)
IC50 (NCI-H460): 69.3 µM

C[C@@H]1CC[C@@]23[C@H](C)CC[C@@H](C[C@H]2[C@]2(C)CC(=O)[C@H]12)C3(C)C
IC50 (HeLa): 30.1 µM | IC50 (MCF7 [7]): 30.7 µM

COC1=C2c3cc(OC)cc(O)c3C(=O)O[C@@]2(C)CC1=O
IC50 (HL-60 [12]): > 200 µM

O=Cc1cc(/C=C/c2cc(O)cc(O)c2C=O)ccc1O
IC50 (HepG2 [13]): < 50 µM | IC50 (MDA-MB-435 [14]): < 50 µM | IC50 (HCT-116 [15]): < 50 µM

C=C1[C@@H](C)[C@H]2[C@H](Cc3ccccc3)NC(=O)[C@]23c2ccc(o2)CCC[C@@H](C)C/C=C/[C@H]3[C@@H]1O
IC50 (MCF7 [16]): 7.7 to 15.8 µM | IC50 (A549 [17]): 7.7 to 15.8 µM | IC50 (HL-60 [18]): 7.7 to 15.8 µM | IC50 (SMMC-7721): 7.7 to 15.8 µM | IC50 (SW480): 7.7 to 15.8 µM

COC(=O)c1cc(OC)cc(OC)c1C(=O)c1coc2c1OC(C)CC2=O (stereo not drawn)
IC50 (KB): 4.7 µM

CC1(C)C=Cc2cc3c(cc2O1)NC(=O)[C@]31C[C@@]23NC(=O)[C@]4(CCCN4C2=O)C[C@@H]3C1(C)C
IC50 (NCI-H460): 55.9 µM
